Patent US7799757B2, “Analogs of parathyroid hormone and PTH-related protein as bone anabolic agents” (priority 2002, dated 2010)
Non-standard residues stand in square brackets, D forms with d. Residues, ends and D or L forms follow the SMILES beside them. No end group written: not given here. 2Thi = N[C@@H](Cc1cccs1)C(=O)O

Key:
[1] = system: SaOS-2/B10 cells; type: binding; settings: 2 h
Description: SaOS-2/B10 cells were maintained in RPMI1640 medium supplemented with 10% fetal bovine serum (FBS) and 2 mM glutamine at 37° C. in a humidified atmosphere of 5% CO2 in air. The medium was changed every three to four days, and the cells were subcultured every week by trypsinization.
SaOS-2/B10 cells were maintained for four days after they had reached confluence. The medium was replaced with 5% FBS […] medium and incubated for 2 hrs at room temperature with 10×10^4 cpm mono-^125I-[Nle^8,18,Tyr^34(3-^125I)]bPTH(1-34)NH2 in the presence or absence of a competing tested polypeptide of the invention. The cells were washed four times with ice-cold PBS and lysed with 0.1M NaOH, and the radioactivity associated with the cells was counted in a scintillation counter. Synthesis of the radiolabelled [Nle^8,18,Tyr^34(3-^125I)]bPTH(1-34)NH2 was carried out as described in Goldman M. E., et al., Endocrinology, (1988), 123, 1468-1475.
The binding assay was conducted on the polypeptides of the invention having SEQ ID NO:5, 6, 7, 9, 10, 11, and 12.

[2] = system: adenylate cyclase in SaOS-2/B10 cells; test: Stimulation of adenylate cyclase activity in SaOS-2/B10 cells; type: cell-based; settings: 1 mM IBMX, 5 min incubation, read-out: EC50 (half maximal stimulation of adenylate cyclase)
Description: The adenylate cyclase activity induced by each of the tested polypeptides of the invention was also measured in SaOS-2/B 10 cells as described previously (Rodain et al., J. Clin. Invest. (1983) 72,1511; Goldman, et al., Endocrinology (1988) 123, 1468). Conflúnt SaOS-2/B10 cells in 24 wells plates were incubated with 0.5 μCi [^3H]adenine (26.9 Ci/mmol, New England Nuclear, Boston, Mass. in fresh medium at 37° C. for 2 hrs. and washed twice with Hank's solution. The cells were treated with 1 mM IBMX (isobutylmethylxanthine, Sigma, St. Louis, Mo.) in fresh medium for 15 min. and a tested PTH analog was added to the medium to incubate for 5 min. The reaction was stopped by the addition of 1.2M TCA followed by sample neutralization with 4N KOH. Cyclic AMP was isolated by the two-column chromatographic method (Salomon, et al., Anal. Biochem. (1974) 58, 541). The radioactivity was counted in a scintillation counter (Liquid scintillation counter 2200CA, PACKARD, Downers Grove, Ill.).

[3] = system: PTH-stimulated adenylate cyclase; settings: background, literature report; cited from earlier work
[4] = system: renal PTH receptors; settings: background, literature report; cited from earlier work

Molecule | IC50 [1] | EC50 [2] | activity of carboxyl-terminally truncated PTH [3] | receptor binding / affinity for renal PTH receptors [4] | agonist activity [3]
CC[C@H](C)[C@H](NC(=O)[C@H](CO)NC(=O)[C@H](CCCCN)NC(=O)CNC(=O)[C@H](CCCCN)NC(=O)[C@H](CC(=O)O)NC(=O)[C@H](Cc1c[nH]cn1)NC(=O)[C@H](CC(C)C)NC(=O)[C@H](CC(C)C)NC(=O)[C@H](CCC(N)=O)NC(=O)[C@H](Cc1c[nH]cn1)NC(=O)[C@H](CCC(=O)O)NC(=O)[C@H](CO)NC(=O)[C@@H](NC(=O)[C@H](C)N)C(C)C)C(=O)N[C@@H](CCC(N)=O)C(=O)N[C@@H](CC(=O)O)C(=O)N[C@@H](CC(C)C)C(=O)N[C@@H](CCCNC(=N)N)C(=O)N[C@@H](CCCNC(=N)N)C(=O)N[C@@H](CCCNC(=N)N)C(=O)N[C@@H](CCC(=O)O)C(=O)N[C@@H](CC(C)C)C(=O)N[C@@H](CC(C)C)C(=O)N[C@@H](CCC(=O)O)C(=O)N[C@@H](CCCCN)C(=O)N[C@@H](CC(C)C)C(=O)N[C@@H](CC(C)C)C(=O)N[C@@H](CCC(=O)O)C(=O)N[C@@H](CCCCN)C(=O)N[C@@H](CC(C)C)C(=O)N[C@@H](Cc1cccs1)C(=O)N[C@H](C(=O)N[C@@H](C)C(N)=O)[C@@H](C)O [SEQ ID NO: 9, [Glu^22,25,29,Leu^23,28,31,Lys^26,30,Thi^32]hPTHrP(1–34)NH2] (H-AVSEHQLLHDKGKSIQDLRRRELLEKLLEKL[2Thi]TA-NH2; N-terminus assumed) | 90 nM | 10 nM |  |  | 
AVSEHQLLHDKGKSIQDLRRREFLEKLIEKIHTA-NH2 [SEQ ID NO: 12, [Glu^22,25,29,Lys^26,30]hPTHrP(1–34)NH2] | 5.5 nM | 0.42 nM |  |  | 
AVSEHQLLHDKGKSIQDLRRRELLEKLLELLHTA-NH2 [SEQ ID NO: 10, [Glu^22,25,29,Leu^23,28,30,31,Lys^26]hPTHrP(1–34)NH2] | 70 nM | 5 nM |  |  | 
AVSEHQLLHDKGKSIQDLRRRFLLHHLLAELHTA-NH2 [SEQ ID NO: 11, [Leu^23,28,31]hPTHrP(1–34)NH2] | 18.3 nM | 0.74 nM |  |  | 
PTH(1 -25) (SVSEIQLMHNLGKHLNSMERVEWLR; Parathyroid hormone; UniProt P01270 32-56, looked up, fragment) [carboxyl-terminally truncated PTH fragment of residues 1-25] |  |  | essentially inactive |  | 
PTH(25-34) (RKKLQDVHNF; Parathyroid hormone; UniProt P01270 56-65, looked up, fragment) [PTH fragment of residues 25-34] |  |  |  | weak receptor binding activity | 
SVSEIQLMHNLGKHLNSMERVELLEKLLEKLHNF-NH2 [SEQ ID NO: 5, [Glu^25,29,Leu^23,27,31,Lys^30]hPTH(1–34)NH2] | 216 nM | 24 nM |  |  | 
SVSEIQLMHNLGKHLNSMERVELLRKLLQDLHNF-NH2 [SEQ ID NO: 7, [Leu^23,27,31]hPTH(1–34)NH2] | 41 nM | 1.12 nM |  |  | 
SVSEIQLMHNLGKHLNSMERVEWLEKKLEKVHNF-NH2 [SEQ ID NO: 6, [Glu^25,29,Lys^30]hPTH(1–34)NH2] | 30 nM | 25.5 nM |  |  | 
[Tyr^34]bPTH(7-34)NH2 |  |  |  | moderate affinity | does not have any agonist activity
